{"source": "paper PMC11310113", "about": "“Development of a UPLC-MS/MS method for quantifying KPT-335 (Verdinexor) in feline plasma for a study of PK” (Frontiers in Veterinary Science, 2024)", "key": {"[1]": {"design": "method as in PMID 24503695", "settings": "healthy beagle dogs (n = 6), single dose 1.5 mg/kg BW p.o. after meals; cited from earlier work"}, "[2]": {"assay": "Pharmacokinetic study of KPT-335 capsules in cats, single oral dose", "assay_type": "in vivo, cat", "procedure": "The recommended dose of KPT-335 for dogs is 1.5 mg/kg body weight (BW). To calculate the dose for cats, the average weight of the tested cats was substituted in the equation used for dogs, and the recommended dose was 2 mg/kg BW through body surface area (BSA) conversion ([20]). The formula was as follows: […]\nwhere K is a constant determined for different animal species, such as a dog (11.0) and cat (8.7), and W is the BW (kg) of the animal. Km is approximated by the individual animal species taking the ratio between the mean weight (kg) and BSA (m^2), this value can be calculated using Formula 1. The average weight of the six tested cats was used in BW parameters, the dosage was calculated by Formula 2, and KPT-335 was weighed into capsules and administered to the animals. The cats were fasted for 12 h before and 2 h following drug administration. Potential adverse effects were monitored during the study. The capsules were administered orally as a single bolus to the back of the tongue via a dosing syringe, accompanied by 3–5 mL of water.\nSamples of blood (1 mL) were collected from the brachial cephalic vein at 0.167, 0.333, 0.5, 0.75, 1, 1.5, 2, 4, 6, 8, 12, 24, 36, and 48 h pre- and post-oral dosing into an anticoagulant blood collection tube containig heparin sodium. Blood samples were centrifuged for 8 min at 1800 × g. The plasma layer was taken and divided evenly into two. The plasma samples were stored at −20°C until analysis (within 20 days of collection). For the pharmacokinetic parameters, the blood drug concentration-time data was analyzed by using WinNonlin software (version 8.1, United States). The elimination half-life (T1/2), the maximum plasma concentration of KPT-335 (Cmax), the time when the plasma concentration reached a maximum (Tmax), and the area under the concentration-time curve (AUC) were determined."}, "[3]": {"design": "method as in PMID 30143046", "settings": "day 14, cited from earlier work; for AUClast (AUC) / HL_Lambda_z / Tmax: dog (n = 4)"}, "[4]": {"assay": "Stability of KPT-335 in cat plasma samples (UPLC-MS/MS)", "assay_type": "in vitro ADME", "settings": "for recovery at 8 h: cat", "procedure": "KPT-335 working solution was added to blank plasma, LQC, MQC, and HQC samples to investigate the room-temperature stability for 2 h, freeze–thaw stability with three times, autosampler stability for 24 h, and long-term stability of 20 days at −20°C. The stability of the stock solution for 20 days was also investigated.\nGiven that plasma is mostly neutral or alkaline, to optimize the stability of KPT-335 at room temperature and ensure the desirable result of the sample during the detection process, we carried out further experiments. There were four groups in the experiment. The first group was the normal preparation of the sample, and the second, third, and fourth groups were samples containing 0.01, 0.05, or 0.1% formic acid, respectively. All the samples were placed at room temperature for 12 h and then processed at the same time for detection."}, "[5]": {"settings": "cat (n = 6), 2 mg/kg BW p.o., single dose, fasted"}, "[6]": {"settings": "plasma, cats, single oral dose of capsules 2 mg/kg BW"}, "[7]": {"settings": "average of all dogs (1.5 and 1.25 mg/kg BW)"}}, "note": "Read-outs that look alike come from different tables or passages of the source."}
{"smiles": "O=C(/C=C\\n1cnc(-c2cc(C(F)(F)F)cc(C(F)(F)F)c2)n1)NNc1ccccn1", "note": "[KPT-335]", "values": [{"measurement": "AUCINF_obs", "setting": "[1]", "value": "1810 ± 216", "unit": "ng·h/mL"}, {"measurement": "AUClast (AUC0-t)", "setting": "[1]", "value": "1760 ± 223", "unit": "ng·h/mL"}, {"measurement": "Cmax", "setting": "[1]", "value": "253 ± 88.3", "unit": "ng/mL"}, {"measurement": "HL_Lambda_z (T1/2)", "setting": "[1]", "value": "3.88 ± 1.47", "unit": "h"}, {"measurement": "Tmax", "setting": "[1]", "value": "3.83 ± 2.71", "unit": "h"}, {"measurement": "AUC_%Extrap_obs", "setting": "[2]; [5]", "value": "11.32 ± 6.56", "unit": "%"}, {"measurement": "HL_Lambda_z", "setting": "[2]; [5]", "value": "5.16 ± 2.30", "unit": "h"}, {"measurement": "MRT last", "setting": "[2]; plasma, po, cat (n = 6), 2 mg/kg BW p.o., single dose, fasted", "value": "5.46 ± 2.14", "unit": "h"}, {"measurement": "k el", "setting": "[2]; plasma, po, cat (n = 6), 2 mg/kg BW p.o., single dose, fasted, read-out: Lambda_z (converted)", "value": "4.17e-05", "unit": "s⁻¹"}, {"measurement": "AUC(0-inf)", "setting": "[2]; [6]", "value": "1590 ± 1000", "unit": "ng·h/mL"}, {"measurement": "AUC(0-t)", "setting": "[2]; [6]", "value": "1440 ± 965", "unit": "ng·h/mL"}, {"measurement": "Cmax", "setting": "[2]; [6]", "value": "240 ± 191", "unit": "ng/mL"}, {"measurement": "Tmax", "setting": "[2]; [6]", "value": "1.46 ± 0.51", "unit": "h"}, {"measurement": "half-life", "setting": "[2]; [6]", "value": "5.16 ± 2.3", "unit": "h"}, {"measurement": "average T1/2", "setting": "[3]; [7]", "value": 5, "unit": "h"}, {"measurement": "average Tmax", "setting": "[3]; [7]", "value": 5.3, "unit": "h"}, {"measurement": "AUClast (AUC)", "setting": "[3]; 1.25 mg/kg BW p.o.", "value": 1576.5, "unit": "ng·h/mL"}, {"measurement": "HL_Lambda_z", "setting": "[3]; 1.25 mg/kg BW p.o.", "value": 5, "unit": "h"}, {"measurement": "Tmax", "setting": "[3]; 1.25 mg/kg BW p.o.", "value": 5.3, "unit": "h"}, {"measurement": "AUClast (AUC)", "setting": "[3]; 1.5 mg/kg BW p.o.", "value": 2346.8, "unit": "ng·h/mL"}, {"measurement": "HL_Lambda_z", "setting": "[3]; 1.5 mg/kg BW p.o.", "value": 5, "unit": "h"}, {"measurement": "Tmax", "setting": "[3]; 1.5 mg/kg BW p.o.", "value": 5.3, "unit": "h"}, {"measurement": "room temperature stability accuracy", "setting": "[4]; acidic plasma (formic acid added), room temperature, 12 h", "value": "still acceptable"}, {"measurement": "recovery at 8 h", "setting": "[4]; plasma, 4°C, read-out: sample recovery", "value": "> 80", "unit": "%"}, {"measurement": "recovery at 8 h", "setting": "[4]; plasma, 8 h at room temperature, read-out: sample recovery rate", "value": "59 to 67.5", "unit": "%"}, {"measurement": "recovery at 8 h", "setting": "[4]; plasma, light-protected, read-out: recovery rate of light-protected samples", "value": "60.4 to 63.2", "unit": "%"}, {"measurement": "accuracy of stable samples at room temperature", "setting": "[4]; plasma containing 0.1% formic acid, room temperature, 12 h", "value": "more than 85%"}, {"measurement": "room temperature stability accuracy", "setting": "[4]; plasma, room temperature, 2 h, all concentrations", "value": "met the requirement of ±15%"}, {"measurement": "room temperature stability accuracy", "setting": "[4]; plasma, room temperature, 8 h", "value": "did not meet the requirement of ±15%"}, {"measurement": "room temperature stability result", "setting": "[4]; plasma, room temperature, 24 h", "value": "not within the requirement of ±15%"}]}
